The record followed here is ChEMBL document CHEMBL3045921, “Synthesis and Acaricidal Activity of Pyrazole-5-carboxamide Derivatives” (1991).

Common to all, as to type: functional
Details in all cases: 120 h

In assay [1] the test system is Tetranychus urticae. Description: Acaricidal activity against Tetranychus urticae (two-spotted spider mite) in kidney bean leaf assessed as mortality at 50 ppm at 25 degC measured after 5 days.
The test system of assay [2] is Tetranychus urticae. Description: Acaricidal activity against Tetranychus urticae (two-spotted spider mite) in kidney bean leaf assessed as mortality at 200 ppm at 25 degC measured after 5 days.
Assay [3] relates to Tetranychus urticae. Put plainly: Acaricidal activity against Tetranychus urticae (two-spotted spider mite) in kidney bean leaf assessed as mortality at 500 ppm at 25 degC measured after 5 days.

In the case of `CCc1nn(C)c(C(=O)NCc2ccc([N+](=O)[O-])cc2)c1Cl`, in the assay on Tetranychus urticae [1], the mortality at 50 ppm was determined as 0%. In the assay on Tetranychus urticae [2], the mortality at 200 ppm amounted to 0%. The mortality at 500 ppm in the assay on Tetranychus urticae [3] was determined as 0%.
With `CCOc1ccc(CNC(=O)c2c(Cl)c(CC)nn2C)cc1`, the mortality at 50 ppm in the assay on Tetranychus urticae [1] is 0%. In addition, in the assay with Tetranychus urticae [2], the mortality at 200 ppm was 0%. Also, the mortality at 500 ppm in the assay with Tetranychus urticae [3] came to 0%.
For the compound `CCCOc1ccc(CNC(=O)c2c(Cl)c(CC)nn2C)cc1`, the mortality at 50 ppm in the assay on Tetranychus urticae [1] is 0%. The mortality at 200 ppm in the assay with Tetranychus urticae [2] came out at 80%. Besides, the mortality at 500 ppm in the assay on Tetranychus urticae [3] was 100%.
For the compound `CCc1nn(C)c(C(=O)NCc2ccc(OC(C)C)cc2)c1Cl`, in the assay on Tetranychus urticae [1], the mortality at 50 ppm was 0%. Further, the mortality at 200 ppm in the assay with Tetranychus urticae [2] was determined as 30%. The mortality at 500 ppm in the assay with Tetranychus urticae [3] is 80%.
The corresponding values for `CCCCOc1ccc(CNC(=O)c2c(Cl)c(CC)nn2C)cc1` are 30%, 80% and 100%.
In the same order, the values of `CCc1nn(C)c(C(=O)NCc2ccc(OC(F)F)cc2)c1Cl` are 0%, 30% and 80%.
Turning to `CCc1nn(C)c(C(=O)NCc2ccc(OCC(F)(F)F)cc2)c1Cl`, in the assay with Tetranychus urticae [1], the mortality at 50 ppm amounted to 0%. In the assay with Tetranychus urticae [2], the mortality at 200 ppm was found to be 30%. For the same compound, in the assay on Tetranychus urticae [3], the mortality at 500 ppm amounted to 80%.
For `CCOCCOc1ccc(CNC(=O)c2c(Cl)c(CC)nn2C)cc1`, the mortality at 50 ppm with Tetranychus urticae [1] was 0%. Besides, the mortality at 200 ppm with Tetranychus urticae [2] worked out at 30%. The mortality at 500 ppm in the assay on Tetranychus urticae [3] was 80%.
As to `CCOCc1ccc(CNC(=O)c2c(Cl)c(CC)nn2C)cc1`, in the assay with Tetranychus urticae [1], the mortality at 50 ppm is 0%. For the same compound, the mortality at 200 ppm with Tetranychus urticae [2] is 80%. Moreover, the mortality at 500 ppm in the assay on Tetranychus urticae [3] worked out at 100%.
Turning to `CCc1nn(C)c(C(=O)NCc2ccc(N)cc2)c1Cl`, the mortality at 50 ppm with Tetranychus urticae [1] was found to be 0%. In addition, in the assay with Tetranychus urticae [2], the mortality at 200 ppm stood at 0%. Moreover, in the assay on Tetranychus urticae [3], the mortality at 500 ppm was 0%.
As for `CCCNc1ccc(CNC(=O)c2c(Cl)c(CC)nn2C)cc1`, in the assay with Tetranychus urticae [1], the mortality at 50 ppm was 0%. The mortality at 200 ppm in the assay with Tetranychus urticae [2] amounted to 0%. The mortality at 500 ppm in the assay on Tetranychus urticae [3] stood at 80%.
Consider `CCc1nn(C)c(C(=O)NCc2ccc(SC)cc2)c1Cl`, for which the mortality at 50 ppm with Tetranychus urticae [1] is 0%. Also, in the assay with Tetranychus urticae [2], the mortality at 200 ppm was found to be 80%. The mortality at 500 ppm in the assay with Tetranychus urticae [3] was 100%.
As to `CCc1nn(C)c(C(=O)NCc2ccc([S+](C)[O-])cc2)c1Cl` (stereo not drawn), in the assay with Tetranychus urticae [1], the mortality at 50 ppm is 0%. Besides, in the assay on Tetranychus urticae [2], the mortality at 200 ppm was 0%. Besides, the mortality at 500 ppm in the assay with Tetranychus urticae [3] was 0%.
Turning to `CCc1nn(C)c(C(=O)NCc2ccc(S(C)(=O)=O)cc2)c1Cl`, in the assay with Tetranychus urticae [1], the mortality at 50 ppm was 0%. In addition, the mortality at 200 ppm in the assay with Tetranychus urticae [2] amounted to 0%. Further, in the assay on Tetranychus urticae [3], the mortality at 500 ppm is 0%.
On to `CCc1nn(C)c(C(=O)NCc2ccc(C#N)cc2)c1Cl`, for which the mortality at 50 ppm with Tetranychus urticae [1] was 0%. For the same compound, in the assay with Tetranychus urticae [2], the mortality at 200 ppm worked out at 0%. Moreover, the mortality at 500 ppm in the assay on Tetranychus urticae [3] amounted to 0%.
Regarding `CCc1nn(C)c(C(=O)NCc2ccc(C(F)(F)F)cc2)c1Cl`, the mortality at 50 ppm in the assay on Tetranychus urticae [1] stood at 30%. The mortality at 200 ppm with Tetranychus urticae [2] is 80%. In addition, the mortality at 500 ppm with Tetranychus urticae [3] was 100%.
In the same order, the values of `CCc1nn(C)c(C(=O)NCc2ccc(Br)cc2)c1Cl` are 0%, 0% and 0%.
Consider `Cc1nn(C)c(C(=S)NCc2ccc(C(C)(C)C)cc2)c1Cl`, for which the mortality at 50 ppm in the assay on Tetranychus urticae [1] was 0%. For the same compound, in the assay with Tetranychus urticae [2], the mortality at 200 ppm turned out to be 30%. For the same compound, the mortality at 500 ppm in the assay with Tetranychus urticae [3] stood at 80%.
The corresponding values for `Cc1nn(C)c(C(=O)NC(C)c2ccc(C(C)(C)C)cc2)c1Br` (stereo not drawn) are 80%, 100% and 100%.
The corresponding values for `Cc1nn(C)c(C(=O)NCc2ccc(C(F)(F)F)cc2)c1Cl` are 80%, 100% and 100%.
In the same order, the values of `Cc1nn(C)c(C(=O)SCc2ccc(C(C)(C)C)cc2)c1Cl` are 0%, 0% and 30%.
